According to patent publication US12624024B2, “EP2 antagonist compounds” (Reservoir Neuroscience, Inc., priority 2021, dated 2026):

How the values were obtained:
[1] = Human Hepatocyte Stability; type: in vitro ADME; conditions: human hepatocytes 0.5×10^6 cells/mL, 120 min; for half-life at 1 μM: read-out: T1/2 (hepatic); for microsomal CLint at 1 μM: read-out: in vitro CLint (hepatic)
Procedure: The tested compound was incubated in duplicate with incubation media (Williams' Medium E with 1× GlutaMAX) containing human hepatocytes (0.5×10^6 cells/mL). These incubations were carried out at a final test concentration of 1 μM over a total incubation period of 120 minutes. Samples were taken at 0, 15, 30, 60, 90 and 120 min and the reaction was terminated by addition of acetonitrile containing internal standard (100 nM alprazolam, 200 nM labetalol, 200 nM caffeine and 200 nM diclofenac). Verapamil was used as the positive control in this study. The samples were analyzed by UPLC-MS/MS to determine the concentration of the tested compound and the percentage remaining, intrinsic clearance (in vitro CLint) and half-life (t½) values were calculated.
(§1) Chromatographic analyses were performed on a Shimadzu UPLC apparatus (Kyoto, Japan) consisting of a gradient pump (model LC-30AD), an automatic injector (model HTC PAL System) and an on-line degasser (model DGU-20A5R). Detection was a triple quadrupole tandem mass spectrometer equipped with a turbo ion spray interface (API 4000/Triple Quad 4500/Triple Quad 5500/Triple Quad 6500). Data acquisition and integration were carried out with LC-MS software (Analyst 1.6) linked directly to the LC-MS/MS system. Chromatographic separations were achieved on a XSelect Hss T3 2.5μ (2.1×30 mm) Column. The mobile phase was 0.1% formic acid in water (A) and 0.1% formic acid in acetonitrile (B). The flow rate was 1.0 mL/min and column was maintained at 40° C.
Half-life (T1/2) data is measured in minutes, and in Table B2, the data is grouped into categories of by the following rules: • T1/2 (hepatic): A=200+; B=100 to 200; C=50 to 100; and D<50.
In vitro clearance (CLint) data is measured in μL/min/mg prot, and in Table B3, the data is grouped into categories of by the following rules: • CLint (microsomal): A<5; B=5 to 10; C=10 to 20; and D=20+.

EP2 receptor = target: T1, EP2 receptor (Homo sapiens, UniProt P43116); assay: EP2 Potency Assay (cAMP TR-FRET, CHO-K1 cells transfected with EP2 receptor, PGE2 at EC80); type: cell-based; conditions: CHO-K1 cells expressing EP2, prostaglandin E2 at EC80, read-out: EP2 Potency (IC50 category)
T1 construct: expressed in transfected cells; host or cells: CHO-K1 cells (ATCC), transient transfection with FuGENE 6
T1 sequence (P43116 whole entry): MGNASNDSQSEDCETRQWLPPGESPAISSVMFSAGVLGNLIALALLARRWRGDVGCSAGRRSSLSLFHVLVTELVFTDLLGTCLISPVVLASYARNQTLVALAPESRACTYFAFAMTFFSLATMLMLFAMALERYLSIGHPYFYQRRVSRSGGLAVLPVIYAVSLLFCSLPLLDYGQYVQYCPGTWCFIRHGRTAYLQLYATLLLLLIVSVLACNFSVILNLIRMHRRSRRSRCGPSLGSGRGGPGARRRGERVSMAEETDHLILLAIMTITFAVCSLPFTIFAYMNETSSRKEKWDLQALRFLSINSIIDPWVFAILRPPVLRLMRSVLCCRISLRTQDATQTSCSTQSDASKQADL
In short: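 CHO-K1 cells transiently transfected with EP2 and seeded 24 h after transfection. IC50 from curve fit of percent inhibition versus concentration.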

[2] = Human Liver Microsome Stability; type: in vitro ADME; conditions: human liver microsomes 0.5 mg/mL, 37° C., 60 min; for half-life at 2 μM: read-out: T1/2 (microsomal); for microsomal CLint at 2 μM: read-out: in vitro CLint (microsomal)
Procedure: The tested compound was incubated in duplicate with human liver microsomes (0.5 mg/mL) at 37° C. These incubations were carried out at a final test article concentration of 2 μM over a total incubation period of 60 minutes. Samples were taken at 0, 15, 30, 45 and 60 min and the reaction terminated by addition of 4 volumes of acetonitrile containing internal standard (100 nM alprazolam, 200 nM imipramine, 200 nM labetalol and 2 μM ketoprofen). Diclofenac was used as a positive control in this study. The samples were analyzed by UPLC-MS/MS to determine the concentration of the test compound and the percent remaining, intrinsic clearance (in vitro CLint) and half-life (T1/2) values were calculated.
as §1
Half-life (T1/2) data is measured in minutes, and in Table B2, the data is grouped into categories of by the following rules: • T1/2 (microsomal): A=100+; B=50 to 100; C=20 to 50; D<20.
In vitro clearance (CLint) data is measured in μL/min/mg prot, and in Table B2, the data is grouped into categories of by the following rules: • CLint (microsomal): A<20; B=20 to 50; C=50 to 100; and D=100+.

| half-life at 1 μM [1] [min] | microsomal CLint at 1 μM [1] [µL/min/mg] | IC50 (EP2 receptor) [nM] | half-life at 2 μM [2] [min] | microsomal CLint at 2 μM [2] [µL/min/mg] | Structure (SMILES) |
| --- | --- | --- | --- | --- | --- |
| < 50 | > 20 | 100 to 500 | 50 to 100 | 20 to 50 | C[C@@H]1COc2c(Cl)cc(-n3ccc4cc(F)ccc43)cc2CN1Cc1cnc(=O)[nH]c1 [Compound 9] |
| 50 to 100 | > 20 | < 100 | < 20 | > 100 | C[C@@H]1COc2c(Cl)cc(-n3ccc4cc(F)ccc43)cc2CN1Cc1cnc(N)nc1 [Compound 11, 5-{[9-chloro-7-(5-fluoroindol-1-yl)-3-methyl-3,5-dihydro-2H-1,4-benzoxazepin-4-yl]methyl}pyrimidin-2-amine] |
| – | – | 100 to 500 | < 20 | 50 to 100 | COc1ncc(CN2CCOc3c(Cl)cc(-n4ccc5cc(F)ccc54)cc3C2)cn1 [Compound 13] |
| > 200 | 5 to 10 | < 100 | > 100 | < 20 | O=c1ncc(CN2CCOc3c(Cl)cc(-n4ccc5cc(F)ccc54)cc3C2)c[nH]1 [Compound 58] |
| – | – | 500 to 1000 | < 20 | > 100 | Cc1c(CN2CCOc3c(Cl)cc(-n4ccc5cc(F)ccc54)cc3C2)cnn1C [Compound 106, 9-chloro-4-((1,5-dimethyl-1H-pyrazol-4-yl)methyl)-7-(5-fluoro-1H-indol-1-yl)-2,3,4,5-tetrahydrobenzo[f][1,4]oxazepane] |
| 100 to 200 | 10 to 20 | < 100 | < 20 | 50 to 100 | Nc1ncc(CN2CCOc3c(Cl)cc(-n4ccc5cc(F)ccc54)cc3C2)cn1 [Compound 146] |
| – | – | 500 to 1000 | 20 to 50 | 20 to 50 | Nc1cnc(CN2CCOc3c(Cl)cc(-n4ccc5cc(F)ccc54)cc3C2)cn1 [Compound 170] |
| < 50 | > 20 | 100 to 500 | < 20 | > 100 | Fc1ccc2c(ccn2-c2cc(Cl)c3c(c2)CN(Cc2ccnc(C4COC4)c2)CCO3)c1 [Compound 187, 9-chloro-7-(5-fluoroindol-1-yl)-4-{[2-(oxetan-3-yl)pyridin-4-yl]methyl}-3,5-dihydro-2H-1,4-benzoxazepine] |
| 100 to 200 | 10 to 20 | < 100 | – | – | Cc1c(CN2CCOc3c(Cl)cc(-n4ccc5cc(F)ccc54)cc3C2)cc[nH]c1=O [Compound 194, 4-{[9-chloro-7-(5-fluoroindol-1-yl)-3,5-dihydro-2H-1,4-benzoxazepin-4-yl]methyl}-3-methyl-1H-pyridin-2-one] |
| – | – | 1000 to 5000 | 20 to 50 | 50 to 100 | O=C1CC(CN2CCOc3c(Cl)cc(-n4ccc5cc(F)ccc54)cc3C2)=NN1 [Compound 198, 5-{[9-chloro-7-(5-fluoroindol-1-yl)-3,5-dihydro-2H-1,4-benzoxazepin-4-yl]methyl}-2,4-dihydropyrazol-3-one] |
| – | – | 1000 to 5000 | 20 to 50 | 20 to 50 | O=C1CC(CN2CCOc3c(Cl)cc(-n4ccc5cc(F)ccc54)cc3C2)CCN1 (centres unmarked) [Compound 200, 4-{[9-chloro-7-(5-fluoroindol-1-yl)-3,5-dihydro-2H-1,4-benzoxazepin-4-yl]methyl}piperidin-2-one] |
| – | – | 500 to 1000 | 50 to 100 | 20 to 50 | O=C1NC=C(CN2CCOc3c(Cl)cc(-n4ccc5cc(F)ccc54)cc3C2)CN1 [Compound 202] |
| – | – | 100 to 500 | < 20 | 50 to 100 | O=c1cc(CN2CCOc3c(Cl)cc(-n4ccc5cc(F)ccc54)cc3C2)cco1 [Compound 203, 4-{[9-chloro-7-(5-fluoroindol-1-yl)-3,5-dihydro-2H-1,4-benzoxazepin-4-yl]methyl}pyran-2-one] |
| 100 to 200 | 5 to 10 | – | 20 to 50 | 20 to 50 | O=c1cc(CN2CCOc3c(Cl)cc(-n4ccc5cc(F)ccc54)cc3C2)cc[nH]1 [Ref, 4-((9-chloro-7-(5-fluoro-1H-indol-1-yl)-2,3-dihydrobenzo[f][1,4]oxazepin-4(5H)-yl)methyl)pyridin-2(1H)-one, reference compound] |
